According to ChEMBL document CHEMBL1201862, “PubChem BioAssay data set” (2004):
Calls of active or inactive are those of the source. Peptide text beside a SMILES is read from it. * marks the point of attachment. Boc = CC(C)(C)OC(=O)*

What was measured:
[1] = target: T1, Cytochrome P450 1A2 (Homo sapiens, UniProt P05177);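 note: PubChem cytochrome P450 panel assay, CYP1A2 panel member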
T1 sequence (P05177 whole entry): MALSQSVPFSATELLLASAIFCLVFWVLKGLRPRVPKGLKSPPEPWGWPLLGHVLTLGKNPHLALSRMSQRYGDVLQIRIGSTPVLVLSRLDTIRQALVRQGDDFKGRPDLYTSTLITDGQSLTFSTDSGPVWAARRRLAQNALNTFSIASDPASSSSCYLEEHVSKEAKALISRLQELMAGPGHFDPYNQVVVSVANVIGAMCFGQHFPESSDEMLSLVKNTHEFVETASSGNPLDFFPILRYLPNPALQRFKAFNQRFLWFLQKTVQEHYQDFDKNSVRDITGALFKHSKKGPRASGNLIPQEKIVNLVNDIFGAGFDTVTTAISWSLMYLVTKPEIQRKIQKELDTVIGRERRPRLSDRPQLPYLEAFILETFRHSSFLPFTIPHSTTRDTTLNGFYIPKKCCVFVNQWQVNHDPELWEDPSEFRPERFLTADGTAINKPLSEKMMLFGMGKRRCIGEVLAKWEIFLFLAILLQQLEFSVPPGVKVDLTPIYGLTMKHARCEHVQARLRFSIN

[2] = target: T2, Corticotropin-releasing factor receptor 2/Corticotropin-releasing factor-binding protein (Homo sapiens, UniProt P24387+Q13324); test: activators of CRF receptor 2 with binding protein – uHTS hits, confirmation (AID 602473); type: functional; conditions: read-out: EC50_Mean
T2 sequence (Q13324 whole entry): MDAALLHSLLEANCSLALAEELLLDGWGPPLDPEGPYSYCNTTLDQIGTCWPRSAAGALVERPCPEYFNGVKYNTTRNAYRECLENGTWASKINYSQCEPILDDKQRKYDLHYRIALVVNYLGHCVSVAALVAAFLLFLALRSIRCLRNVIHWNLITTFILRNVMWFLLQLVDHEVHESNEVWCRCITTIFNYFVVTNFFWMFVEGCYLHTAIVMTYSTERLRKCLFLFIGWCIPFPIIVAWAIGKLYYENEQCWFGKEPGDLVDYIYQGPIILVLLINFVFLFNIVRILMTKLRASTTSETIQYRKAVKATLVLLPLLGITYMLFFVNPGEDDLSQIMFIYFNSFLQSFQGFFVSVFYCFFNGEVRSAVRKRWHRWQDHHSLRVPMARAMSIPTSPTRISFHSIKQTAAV
T2 sequence (P24387 whole entry): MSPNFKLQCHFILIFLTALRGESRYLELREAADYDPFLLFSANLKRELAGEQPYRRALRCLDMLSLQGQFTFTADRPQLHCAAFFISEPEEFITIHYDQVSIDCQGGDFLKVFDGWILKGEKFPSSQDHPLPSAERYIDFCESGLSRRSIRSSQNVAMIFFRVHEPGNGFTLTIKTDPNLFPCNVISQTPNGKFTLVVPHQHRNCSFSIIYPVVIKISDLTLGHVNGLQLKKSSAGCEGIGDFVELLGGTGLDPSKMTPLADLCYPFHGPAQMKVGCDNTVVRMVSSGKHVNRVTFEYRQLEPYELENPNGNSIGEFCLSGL

[3] = target: T2, Corticotropin-releasing factor receptor 2/Corticotropin-releasing factor-binding protein; test: Dose Response confirmation of uHTS hits for small molecule antagonists of the CRF-binding protein and CRF-R2 receptor complex.; type: functional; conditions: read-out: IC50_Mean
[4] = inhibitors of firefly luciferase expression or activity, dose response, H4 neuroglioma cells, luminescence (AID 1990); type: functional, cell-based
[5] = Luminescence Cell-Based Dose Response HTS to Identify Inhibitors of 5'UTR Stem-Loop Driven Prion Protein mRNA Translation in H4 Neuroglioblastoma Cells. [Related pubchem assays: 1827 (Project Summary), 1813 (Primary HTS)]; type: functional
[6] = inhibitors of SNCA 5'UTR-driven reporter translation, confirmation, H4 neuroglioma cells, luminescence (AID 1988); type: functional, cell-based
[7] = target: Cytochrome P450 2C9 (Homo sapiens, UniProt P11712)
[8] = target: Cytochrome P450 3A4 (Homo sapiens, UniProt P08684);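 note: CYP3A4 tested as one member of a cytochrome P450 panel screen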
[9] = target: Cytochrome P450 2C19 (Homo sapiens, UniProt P33261); test: Cytochrome panel assay with activity outcomes. Panel member name: p450-cyp2c19 Compounds with AC50 equal or less than 10 uM are considered active; type: functional; conditions: read-out: AC50
[10] = tested on: H4; test: Luminescence Cell-Based Dose Response HTS to Identify Activators of 5'UTR Stem-Loop Driven Prion Protein mRNA Translation in H4 Neuroglioblastoma Cells. [Related pubchem assays: 1829 (Project Summary), 1814 (Primary HTS)]; type: functional; conditions: Homo sapiens
[11] = tested on: Streptococcus; test: Group A Streptococcus viability loss, dose response, counter-screen for streptokinase expression inhibitor project, luminescence, BacTiterGlo (AID 1915); type: functional, organism-based;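 note: potency for reduction of bacterial viability or growth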
[12] = target: T3, Streptokinase A (Streptococcus pyogenes serotype M1, UniProt P10520); test: S. pyogenes streptokinase expression inhibitors, potency, dose response, plasminogen activation absorbance, OD405 (AID 1914); type: functional, Streptococcus pyogenes M1 GAS;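 note: secreted streptokinase activity via plasminogen activation per viability signal from cell pellet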
T3 sequence (P10520 whole entry): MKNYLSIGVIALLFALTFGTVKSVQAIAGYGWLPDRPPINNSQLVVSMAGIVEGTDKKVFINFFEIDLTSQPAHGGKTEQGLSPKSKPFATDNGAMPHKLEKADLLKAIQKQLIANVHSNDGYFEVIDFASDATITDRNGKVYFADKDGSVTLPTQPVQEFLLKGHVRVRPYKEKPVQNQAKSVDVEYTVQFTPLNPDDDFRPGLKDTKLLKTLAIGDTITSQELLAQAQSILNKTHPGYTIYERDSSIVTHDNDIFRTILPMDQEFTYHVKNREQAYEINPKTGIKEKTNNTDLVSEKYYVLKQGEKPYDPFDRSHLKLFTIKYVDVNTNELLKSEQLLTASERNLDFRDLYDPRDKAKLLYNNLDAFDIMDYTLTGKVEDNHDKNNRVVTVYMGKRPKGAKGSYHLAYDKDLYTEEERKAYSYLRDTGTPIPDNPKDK

[13] = tested on: Streptococcus sp. 'group A'; test: growth inhibition of control SK(-) GAS strain, dose response, counter-screen for streptokinase expression inhibitor project, luminescence, kanamycin, BacTiterGlo, confirmation (AID 1900); type: functional, organism-based
[14] = inhibitors of intracellular T. cruzi replication, confirmation, NIH3T3 host cells, beta-gal luminescence (AID 2044); type: functional, cell-based;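 note: intracellular parasites grown in NIH/3T3 mouse fibroblasts as host cells; luminescent beta-galactosidase reporter signal from transgenic T. cruzi replicating inside host cells; inhibitors lower the luminescence signal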
[15] = cytotoxicity toward NIH3T3 fibroblasts, dose response, counter-screen, cell-based, ATP luminescence, mouse fibroblasts (AID 2010); type: functional;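 note: cells exposed to compound for about 90 hours before reading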

Cytochrome P450 2C19, sequence (P33261 whole entry): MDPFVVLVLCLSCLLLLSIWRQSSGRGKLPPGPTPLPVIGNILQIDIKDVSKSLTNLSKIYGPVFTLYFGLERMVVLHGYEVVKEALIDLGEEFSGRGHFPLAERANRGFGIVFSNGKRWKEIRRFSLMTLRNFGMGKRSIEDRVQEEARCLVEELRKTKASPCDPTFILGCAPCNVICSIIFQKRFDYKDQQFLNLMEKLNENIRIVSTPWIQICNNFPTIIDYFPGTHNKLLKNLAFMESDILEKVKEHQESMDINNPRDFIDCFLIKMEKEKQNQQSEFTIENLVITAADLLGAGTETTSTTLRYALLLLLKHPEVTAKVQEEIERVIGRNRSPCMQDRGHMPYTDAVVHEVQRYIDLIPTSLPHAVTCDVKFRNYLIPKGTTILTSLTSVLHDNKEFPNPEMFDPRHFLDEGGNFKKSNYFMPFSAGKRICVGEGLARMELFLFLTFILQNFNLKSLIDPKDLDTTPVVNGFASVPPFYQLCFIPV
Cytochrome P450 3A4, sequence (P08684 whole entry): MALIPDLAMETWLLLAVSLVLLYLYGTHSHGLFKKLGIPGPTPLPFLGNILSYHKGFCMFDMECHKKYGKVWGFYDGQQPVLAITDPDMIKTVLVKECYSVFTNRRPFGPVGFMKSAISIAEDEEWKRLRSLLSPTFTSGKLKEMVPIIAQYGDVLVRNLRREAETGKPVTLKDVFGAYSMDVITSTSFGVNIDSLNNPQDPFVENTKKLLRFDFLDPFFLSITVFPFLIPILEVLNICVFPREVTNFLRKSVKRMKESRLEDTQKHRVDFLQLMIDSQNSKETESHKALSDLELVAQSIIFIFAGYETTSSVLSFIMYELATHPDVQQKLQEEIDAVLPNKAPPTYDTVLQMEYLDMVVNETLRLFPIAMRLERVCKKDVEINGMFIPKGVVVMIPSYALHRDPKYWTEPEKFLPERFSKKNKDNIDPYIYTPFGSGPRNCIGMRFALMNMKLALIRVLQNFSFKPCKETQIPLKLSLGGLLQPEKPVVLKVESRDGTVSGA
Cytochrome P450 2C9, sequence (P11712 whole entry): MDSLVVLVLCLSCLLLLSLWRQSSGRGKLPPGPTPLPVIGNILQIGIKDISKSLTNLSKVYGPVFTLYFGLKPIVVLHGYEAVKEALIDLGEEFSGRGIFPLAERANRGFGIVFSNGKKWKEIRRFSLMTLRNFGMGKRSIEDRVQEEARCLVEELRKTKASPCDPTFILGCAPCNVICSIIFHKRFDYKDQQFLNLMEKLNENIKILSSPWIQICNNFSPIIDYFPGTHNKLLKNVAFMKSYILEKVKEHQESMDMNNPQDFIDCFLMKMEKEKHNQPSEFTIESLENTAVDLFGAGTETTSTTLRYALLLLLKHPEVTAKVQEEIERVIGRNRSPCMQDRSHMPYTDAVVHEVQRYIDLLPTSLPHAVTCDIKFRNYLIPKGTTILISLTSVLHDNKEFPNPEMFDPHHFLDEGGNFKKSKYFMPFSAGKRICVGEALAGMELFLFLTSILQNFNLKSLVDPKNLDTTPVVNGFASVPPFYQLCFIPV

SMILES | AC50 [1] | EC50 [2] | IC50 [3] | also measured
N#CC1=C(N)OC2=C(C(=O)CCC2)C12CCC1(CC2)OCCO1 | 25.1 µM (inconclusive) |  |  | 
CC(C)(C)OC(=O)N1CCN(c2ccc(CNC(=O)c3ccc(Cl)cc3)cc2)CC1 |  | > 53 µM (inactive) | > 47.1 µM (inactive) | 
O=C1NC(=O)C(CCc2ccncc2)(Cc2cccc(Cl)c2Cl)C(=O)N1c1ccc(Br)cc1 (stereo not drawn) |  |  |  | EC50 [4]: 13.2 µM (active); EC50 [5]: 18.9 µM (active); EC50 [6]: 13.9 µM (active)
Clc1ccc(CSc2ncnc3c2ncn3[C@@H]2CCCCO2)cc1 | 1.58 µM (inconclusive) |  |  | 
O=C(O)CCNC(=O)OCC1c2ccccc2-c2ccccc21 |  | > 53 µM (inactive) | > 47.1 µM (inactive) | 
CCc1cc(C(=O)OC)c(NC(=O)CCCC(=O)O)s1 | 25.1 µM (inconclusive) |  |  | AC50 [7]: 28.2 µM (inconclusive)
COc1ccc(N(CC(=O)NCCc2ccc(OC)c(OC)c2)S(=O)(=O)c2c(C)noc2C)cc1 |  | > 53 µM (inactive) | > 47.1 µM (inactive) | 
Nc1cc(N)nc(SCC(=O)NNC(=O)c2ccc(Cl)cc2)n1 | 15.8 µM (inconclusive) |  |  | AC50 [8]: 14.1 µM (inconclusive); AC50 [7]: 28.2 µM (inconclusive); AC50 [9]: 39.8 µM (inconclusive)
O=S(=O)(N=C(Nc1ccccn1)c1ccccc1)c1ccccc1 | 14.1 µM (inconclusive) |  |  | AC50 [8]: 28.2 µM (inconclusive); AC50 [9]: 15.8 µM (inconclusive)
O=C1c2ccccc2-c2ccc(NC(=O)[C@H]3CCCC[C@@H]3C(=O)O)cc21 | 1 µM (inconclusive) |  |  | 
COc1ccc(CNC(=O)Nc2cccs2)cc1OC |  | > 53 µM (inactive) | > 47.1 µM (inactive) | AC50 [7]: 39.8 µM (inconclusive)
c1cncc(-c2cncnc2NC2CCNCC2)c1 | 12.6 µM (inconclusive) |  |  | 
COc1cc2ccccc2cc1C(=O)Nc1ccc(N2CCN(C)CC2)cc1 |  |  |  | EC50 [10]: > 120 µM (not active)
Cc1cccc(N(C(=O)c2sc(C)nc2C)C(C(=O)NCC2CCCO2)c2ccccc2)c1 (stereo not drawn) |  | > 53 µM (inactive) | > 47.1 µM (inactive) | 
CCn1c(COc2ccc(C)cc2)nnc1SCc1ccc(C#N)cc1 | 28.2 µM (inconclusive) |  |  | EC50 [11]: > 150 µM (not active); EC50 [12]: > 150 µM (not active); EC50 [13]: > 150 µM (not active)
CCN(CC)c1ccc(NC(=O)CN2CCN(c3ccccc3F)CC2)cc1 | 28.2 µM (inconclusive) |  |  | AC50 [8]: 15.8 µM (inconclusive)

SMILES | AC50 [1] | EC50 [2] | IC50 [3] | also measured
CC(=O)c1c(N2CCCCC2)nc(=S)n(Cc2ccccc2)c1C |  | > 53 µM (inactive) | > 47.1 µM (inactive) | 
CCOc1ccc(OCCOCCN2CCc3ccccc3C2)cc1 | 20 µM (inconclusive) |  |  | AC50 [8]: 25.1 µM (inconclusive); EC50 [14]: 124 nM (active); AC50 [7]: 11.2 µM (inconclusive); EC50 [15]: 21 µM (active)
CCCCCN(C(=O)CCC(=O)OCC(=O)c1c(C)cc(C)cc1C)c1c(N)n(CCCC)c(=O)[nH]c1=O |  | > 53 µM (inactive) | > 47.1 µM (inactive) | 
O=C(NNC(=O)c1oc2ccccc2c1-n1cccc1)c1ccco1 |  | > 53 µM (inactive) | > 47.1 µM (inactive) | 
Cc1ccc(OCCC(=O)O)cc1 |  | > 53 µM (inactive) | > 47.1 µM (inactive) | 
CN(Cc1cc2ccccc2[nH]c1=O)S(C)(=O)=O | 28.2 µM (inconclusive) |  |  | 
Oc1cc(O)c2c(c1)O[C@H](c1ccc(O)c(O)c1)[C@@H](O)[C@@H]2c1c(O)cc(O)c2c1O[C@@H](c1ccc(O)c(O)c1)[C@H](O)C2 | 2.51 µM (inconclusive) |  |  | 
CCCOc1ccc(N2C(=O)CC(N3CCC(c4nc5ccccc5o4)CC3)C2=O)cc1 (stereo not drawn) |  |  |  | EC50 [4]: > 120 µM (not active); EC50 [5]: > 60 µM (not active); EC50 [6]: > 120 µM (not active)
NC(=O)Nc1n[nH]c(-c2ccccc2)n1 | 3.16 µM (inconclusive) |  |  | 
c1ccc(-c2csc(Nc3nc(N4CCOCC4)nc(N4CCOCC4)n3)n2)cc1 | 5.62 µM (inconclusive) |  |  | AC50 [8]: 10 µM (inconclusive); EC50 [14]: 104 nM (active); AC50 [7]: 3.16 µM (inconclusive); EC50 [15]: > 30 µM (not active); AC50 [9]: 5.62 µM (inconclusive)
COc1ccc(CNC(=O)CN(C)S(=O)(=O)c2ccc3c(c2)n(C)c(=O)c(=O)n3C)cc1 |  | > 53 µM (inactive) | > 47.1 µM (inactive) | 
O=C(COC(=O)c1cc2ccccc2cc1O)NC1CCCCC1 |  | > 53 µM (inactive) | > 47.1 µM (inactive) | 
O=C(c1ccc(F)cc1)C1CCN(Cc2ccccc2F)CC1 |  | > 53 µM (inactive) | > 47.1 µM (inactive) | 
CCc1ccc(/C=N/NC(=O)c2cc(C3CC3)nc3ccc(Br)cc23)s1 |  |  |  | EC50 [4]: > 120 µM (not active); EC50 [5]: 9.75 µM (active); EC50 [6]: 6.9 µM (active)
N[C@H](C(=O)O)[C@@H]1[C@@H](C(=O)O)C1(F)F | 31.6 µM (inconclusive) |  |  | 
CC(C)C(NC(=O)OC(C)(C)C)C(=O)N1CCCC1C(=O)NC(Cc1ccccc1)C(N)=O (stereo not drawn) (Boc-Val-Pro-Phe-NH2; configuration not given here) | 2 µM (inconclusive) |  |  | AC50 [8]: 15.8 µM (inconclusive); AC50 [7]: 31.6 µM (inconclusive); AC50 [9]: 1.12 µM (inconclusive)
